The record followed here is ChEMBL document CHEMBL5052852, “Substituted hydantoinamides as adamts7 antagonists” (2021).

Assay [1] in a line: Inhibition of recombinant rat/human ADAMTS12 hybrid using HiLyteFluor-488 DELSSMVLELRGLRT-K(QXL520)-E-NH2 as substrate incubated for 120 mins and measured by FRET assay.
Assay [2] is described as follows: Inhibition of recombinant rat/human ADAMTS7 hybrid using HiLyteFluor-488 DELSSMVLELRGLRT-K(QXL520)-E-NH2 as substrate incubated for 120 mins and measured by FRET assay.

Structures are written as SMILES.

As usually defined, the IC50 is the midpoint of a concentration-inhibition curve. Take `O=C1NC(=O)C(CNC(=O)c2cnn(-c3ccc(F)cc3)n2)(c2cccnc2)N1` (racemic): the IC50 in assay [1] stood at 4500 nM; in assay [2], 30 nM.

With `O=C1NC(=O)C(CNC(=O)c2cnn(-c3ccc(F)cc3)n2)(c2nccs2)N1` (stereo in doubt), the results for the IC50 in assay [1] and in assay [2] were 1400 nM and 15 nM, respectively.

As to `Cn1cc(-c2cc(C(=O)NC[C@@]3(C4CC4)NC(=O)NC3=O)on2)cn1`, the IC50 in assay [1] is 4690 nM; in assay [2] it was 52 nM.

Consider `O=C1NC(=O)C(CNC(=O)c2cnn(-c3ccc(F)cc3)n2)(c2ncsc2C2CC2)N1` (racemic), for which the IC50 in assay [1] turned out to be 460 nM; in assay [2], 8 nM.

Consider `O=C1NC(=O)C(CNC(=O)c2cnn(-c3ccc(F)cc3)n2)(C2CCOCC2)N1` (racemic), for which the concentration for half-maximal inhibition (IC50) in assay [1] came out at 9300 nM; in assay [2], 260 nM.

Take `O=C1NC(=O)C(CNC(=O)c2cnn(-c3ccc(F)cc3)n2)(c2ccccc2)N1` (racemic): the IC50 in assay [1] was greater than 50000 nM; in assay [2], 69 nM.

In the case of `O=C1NC(=O)C(CNC(=O)c2cnn(-c3ccc(Cl)cc3)n2)(C2CCC2)N1` (stereo not given), the IC50 in assay [1] was found to be 980 nM; in assay [2], 10 nM.

As for `O=C1NC(=O)[C@](CNC(=O)c2cnn(-c3ccc(F)c(Cl)c3)n2)(C2CC2)N1`, the IC50 was 250 nM in assay [1] and 5 nM in assay [2].

In the case of `O=C1NC(=O)C(CNC(=O)c2cnn(-c3ccc(F)cc3)n2)(c2ccccn2)N1` (racemic), the IC50 was determined as 3000 nM in assay [1] and 10 nM in assay [2].

`CC1(C)CC1C1(CNC(=O)c2cnn(-c3ccccc3)n2)NC(=O)NC1=O` (stereo in doubt; form 2): the IC50 was 2000 nM in assay [1] and 38 nM in assay [2].

Turning to `CC(C)C1(CNC(=O)c2cnn(-c3ccccc3)n2)NC(=O)NC1=O` (stereo in doubt), the IC50 in assay [1] is 10000 nM; in assay [2] it was 76 nM.

Turning to `CC(C)(C)C1(CNC(=O)c2cnn(-c3ccc(F)cc3)n2)NC(=O)NC1=O` (racemic), the IC50 in assay [1] is 6000 nM; in assay [2], 69 nM.

For the compound `O=C1NC(=O)[C@](CNC(=O)c2cnn(-c3cc(F)c(F)c(F)c3)n2)(C2CC2)N1`, the IC50 in assay [1] was 1100 nM; in assay [2], 25 nM.

For `O=C1NC(=O)C(CNC(=O)c2cnn(-c3ccc(F)cc3)n2)(C2CCCC2)N1` (stereo in doubt), the half-inhibitory concentration (IC50) stood at 5900 nM in assay [1] and 33 nM in assay [2].

Regarding `O=C1NC(=O)C(CNC(=O)c2cnn(-c3ccc(F)cc3)n2)(CC2CC2)N1` (racemic), the IC50 in assay [1] was 50000 nM; in assay [2], 240 nM.

With `O=C1NC(=O)C(CNC(=O)c2cnn(-c3ccc(F)cc3)n2)(c2ncsc2C(F)(F)F)N1` (racemic), the values for the IC50 in assay [1] and in assay [2] were 6600 nM and 48 nM, respectively.

Consider `O=C1NC(=O)[C@](CNC(=O)c2cnn(-c3ccccc3Cl)n2)(C2CC2)N1`, for which the figures for the IC50 in assay [1] and in assay [2] were 10000 nM and 470 nM, respectively.

Take `O=C1NC(=O)C(CNC(=O)c2cnn(-c3ccc(F)cc3)n2)(C2CC(F)(F)C2)N1` (racemic): the IC50 in assay [1] was greater than 50000 nM; in assay [2], 220 nM.

As for `O=C1NC(=O)C(CNC(=O)c2cnn(-c3ccc(F)cc3F)n2)(c2nccs2)N1` (racemic), the IC50 in assay [1] worked out at 6600 nM; in assay [2], 87 nM.

In the case of `O=C1NC(=O)C(CNC(=O)c2cnn(-c3ccc(F)cc3)n2)(C2CCC2)N1` (racemic), the figures for the IC50 in assay [1] and in assay [2] were 35000 nM and 98 nM, respectively.

`CS(=O)(=O)c1ccc(-n2ncc(C(=O)NC[C@@]3(C4CC4)NC(=O)NC3=O)n2)cc1`: the IC50 in assay [1] was 67000 nM; in assay [2], 870 nM.

Take `O=C1NC(=O)C(CNC(=O)c2nc(-c3ccccc3)no2)(CC2CC2)N1` (stereo not given): the figures for the half-inhibitory concentration (IC50) in assay [1] and in assay [2] were 2900 nM and 250 nM, respectively.

With `O=C1NC(=O)[C@](CNC(=O)c2coc(-c3ccc(F)cc3)n2)(C2CC2)N1`, the results for the concentration for half-maximal inhibition (IC50) in assay [1] and in assay [2] were 1700 nM and 55 nM, respectively.

As for `CC(C)C1(CNC(=O)c2cnn(-c3ccc(F)cc3)n2)NC(=O)NC1=O` (racemic), the IC50 in assay [1] turned out to be 16000 nM; in assay [2], 42 nM.

In the case of `CC1(CNC(=O)c2cnn(-c3ccc(F)cc3)n2)NC(=O)NC1=O` (racemic), the IC50 came out at 5000 nM in assay [1] and 560 nM in assay [2].

With `O=C1NC(=O)C(CNC(=O)c2cnn(-c3ccc(F)cc3)n2)(c2ncccc2C(F)(F)F)N1` (racemic), the IC50 was 15000 nM in assay [1] and 59 nM in assay [2].

Regarding `O=C1NC(=O)[C@](CNC(=O)c2cnn(-c3ccccc3)n2)(C2CC2)N1`, the IC50 in assay [1] stood at 1450 nM; in assay [2], 69 nM.

For the compound `Cn1ccnc1C1(CNC(=O)c2cnn(-c3ccc(F)cc3)n2)NC(=O)NC1=O` (stereo in doubt), the IC50 in assay [1] is 130 nM; in assay [2] it was 2 nM.

Turning to `O=C1NC(=O)C(CNC(=O)c2cnn(-c3ccccc3)n2)(C2CCCOC2)N1` (racemic), the IC50 in assay [1] was 8500 nM; in assay [2], 62 nM.

Take `CC(C)C1(CNC(=O)c2cnn(-c3cccc(C#N)c3)n2)NC(=O)NC1=O` (racemic): the values for the IC50 in assay [1] and in assay [2] were 6000 nM and 170 nM, respectively.

Turning to `CC(C)(C)CC1(CNC(=O)c2cnn(-c3ccccc3)n2)NC(=O)NC1=O` (stereo not given), the 50% inhibitory concentration (IC50) came out at 5000 nM in assay [1] and 250 nM in assay [2].

Consider `CC(C)C1(CNC(=O)c2cnn(-c3ccc(F)c(F)c3)n2)NC(=O)NC1=O` (racemic), for which the IC50 amounted to 2500 nM in assay [1] and 11 nM in assay [2].

As to `C[C@H](NC(=O)c1cnn(-c2ccccc2)n1)C1(C2CC2)NC(=O)NC1=O` (stereo not given in full), the figures for the IC50 in assay [1] and in assay [2] were 25000 nM and 980 nM, respectively.

With `CCC(C)C1(CNC(=O)c2cnn(-c3ccc(F)cc3)n2)NC(=O)NC1=O` (stereo in doubt; form 2), the IC50 in assay [1] was 1000 nM; in assay [2], 37 nM.

On to `CC(C)C1(CNC(=O)c2cnn(-c3ccc(F)cc3)n2)NC(=O)NC1=O` (stereo in doubt), for which the results for the 50% inhibitory concentration (IC50) in assay [1] and in assay [2] were 2770 nM and 8 nM, respectively.

Turning to `N#Cc1cccc(-n2ncc(C(=O)NC[C@@]3(C4CC4)NC(=O)NC3=O)n2)c1`, the IC50 came to 600 nM in assay [1] and 32 nM in assay [2].

In the case of `O=C1NC(=O)[C@](CNC(=O)c2cnn(-c3ccc(F)cc3Cl)n2)(C2CC2)N1`, the IC50 in assay [1] stood at 17000 nM; in assay [2], 320 nM.

Take `O=C1NC(=O)C(CNC(=O)c2cnn(-c3cccc(F)c3)n2)(C2CCC2)N1` (stereo not given): the IC50 in assay [1] stood at 2200 nM; in assay [2], 8 nM.

Regarding `Cc1ccccc1-n1ncc(C(=O)NC[C@@]2(C3CC3)NC(=O)NC2=O)n1`, the IC50 in assay [1] was 12000 nM; in assay [2] it was 980 nM.

As for `CC(C)C1(CNC(=O)c2cnn(-c3ccc(Cl)c(F)c3)n2)NC(=O)NC1=O` (stereo in doubt), the IC50 in assay [1] turned out to be 1000 nM; in assay [2], 7 nM.
